According to patent publication US7160917B2, “Spirobenzofuran lactams and their derivatives, processes for their preparation and use thereof” (Sanofi-Aventis Deutschland GmbH, priority 2002, dated 2007):

Each compound was assayed against plasminogen activator inhibitor 1 (PAI-1) (Homo sapiens, UniProt P05121) (assay: Bioassay for PAI-1 inhibitors (tPA amidolysis of chromogenic substrate in presence of PAI-1)). Settings: inhibition of PAI-1 measured via tPA activity; 4.5 nM PAI-1, 7.5 nM tPA, 1 mM substrate H-D-Ile-Pro-Arg-pNA, TRIS buffer pH 8.4, OD 405 nm, 37° C. 60 minutes.
Format: biochemical
Description: For the detection of the inhibitors of PAI-1, a test is run in which the activation of a specific substrate by tPA is measured in the presence of a defined amount of PAI-1 and the substance in each case to be investigated. tPA is inhibited by PAI-1. An inhibition of PAI-1 results in an increased tPA activity. The enzymatic activity of tPA is measured colorimetrically by employing a chromogenic substrate which becomes colored after amidolysis.
Reaction: The inhibition of the enzymatic activity of tPA by PAI-1 is measured by means of the amidolysis of the chromogenic substrate H-D-IIe-Pro-Arg-pNA (Chromogenix; pNA=para-nitroaniline) as the optical density (OD) at a wavelength of 405 nm.
Extracts or pure substances, for example of the spirobenzofuran lactam derivatives prepared or characterized in examples 4–10, which are present dissolved in DMSO, were diluted in a suitable manner using TRIS buffer pH 8.4.
5 μl of test substance and 5 μl of PAI-1 are preincubated at room temperature for 30 minutes. 10 μl of tPA solution and 20 μl of substrate solution are then added.
The final concentrations in the sample are 50 μM test substance, 4.5 nM PAI-1, 7.5 nM tPA and 1 mM substrate in TRIS buffer pH 8.4. Immediately after the addition of the substrate, the initial absorption is measured at 405 nm. After incubation at 37° C. for 60 minutes, the absorption is measured again.
In each case, blank samples (buffer instead of tPA), positive controls=B (buffer instead of test substances) and tPA controls=A (buffer instead of PAI-1) are co-tested.
After correction by means of the blank samples, the inhibition is determined according to the following equation: […]
The results of the assay are shown as IC50 values in Table 1.

Sequence of plasminogen activator inhibitor 1 (PAI-1) (P05121 24-402): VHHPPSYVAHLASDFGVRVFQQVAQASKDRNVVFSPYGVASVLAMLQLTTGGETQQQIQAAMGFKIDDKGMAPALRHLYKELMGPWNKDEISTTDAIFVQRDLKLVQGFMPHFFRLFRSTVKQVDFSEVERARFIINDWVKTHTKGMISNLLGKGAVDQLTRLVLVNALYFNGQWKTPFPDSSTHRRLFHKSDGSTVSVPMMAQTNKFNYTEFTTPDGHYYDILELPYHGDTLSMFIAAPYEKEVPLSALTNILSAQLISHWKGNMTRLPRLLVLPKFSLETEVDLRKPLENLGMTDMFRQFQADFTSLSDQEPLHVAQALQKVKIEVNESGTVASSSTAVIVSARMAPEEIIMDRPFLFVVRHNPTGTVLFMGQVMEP

In order of falling IC50:
1. CCC(C)C(C(=O)O)N1Cc2c(cc(O)c3c2OC2(C3)C(C)CCC3C(C)(C)C(O)CCC32C)C1=O (stereo not drawn) [Compound of the formula (III)]  66 µM
2. CC1CCC2C(C)(C)C(O)CCC2(C)C12Cc1c(O)cc3c(c1O2)CN(C(Cc1ccccc1)C(=O)O)C3=O (stereo not drawn) [Compound of the formula (II)]  41 µM
3. CC(C)CC(C(=O)O)N1Cc2c(cc(O)c3c2OC2(C3)C(C)CCC3C(C)(C)C(O)CCC32C)C1=O (stereo not drawn) [Compound of the formula (IV)]  35 µM
